Primed or numbered codes have the meaning given here. Where no end group is shown, it is not given here. FITC′ = not defined here
Columns and labels:
[1] = system: OE33 esophageal adenocarcinoma cells; assay: Competitive inhibition assay (peptide vs SNFYMPL-phage); format: cell-based, human; conditions: peptide at 100, 200, and 400 μM
Experimental: Competitive inhibition assay. The OE33 and Q-hTERT cells were detached and blocked. […] pfu of SNFYMPL-phage was incubated with OE33 cells (1×10^7) or Q-hTERT cells (1×10^7), ‘SNFYMPL-GGGSK’ peptide or scrambled peptide ‘NLMPYFS-GGGSK’ were added into cell-phage mixture at the concentration of 100, 200, and 400 μm for competition with the phage. After washing three times with PBS/0.1% (v/v) Tween-20 and one time with 0.2 M glycine, pH 2.2/0.1% BSA for two minutes, the bound phage were recovered and titered. Every sample was carried out in triplicate. The amount of bound phage in every sample was […].

[2] = system: OE33 (esophageal adenocarcinoma) cells; assay: Fluorescence images for peptide binding on culture cells; format: cell-based, human; conditions: for intensity associated with binding to the cell surface: OE33
Experimental: (§1) Fluoresence images for peptide binding on culture cells. The OE33 and QhTERT cells were grown in chamber slides to 80% confluence. Blocking of non-specific binding to these cells was performed by adding 200 μl of 1% BSA diluted in PBS for 30 min. The cells were then incubated with […] of the candidate FITC-labeled peptide in serum free media for 10 minutes at room temperature. The cells were washed 3 times using 200 μL PBS/0.5% TWEEN 20 in room temperature. The cells were fixed in ice cold 4% praformaldehyde for 5 minutes. The cells were then stained with Vectashield mounting medium containing DAPI. Fluorescence images were collected with a confocal microscope (Nikon 1000) at 200×. The fluorescence intensity from the cells in 3 images was averaged to assess for peptide binding using NIH Image J software.

[3] = system: Q-hTERT (intestinal metaplasia) cells; assay: as above; format: cell-based
Experimental: as §1

[4] = system: Human endoscopic mucosal resection (EMR) specimens of esophageal mucosa; assay: Fluorescence-labeled polypeptide binding to endoscopic mucosal resection (EMR) specimens; conditions: for mean fluorescence intensity value: 100 μm, 5 minutes
Experimental: Human endoscopic mucosal resection (EMR) specimens were freshly taken from regions of suspected dysplastic mucosa. Each specimen was incubated with the FITC-labeled polypeptide of SEQ ID NO: 1 at a concentration of 100 μm for 5 minutes. Ink was used to mark the 12 o'clock position for orientation. White light stereo microscope (Olympus SZX16) images were obtained with an overlying 20×20 mm grid to register the histology. Fluorescence images were obtained at an exposure of 12 ms. The tissue was then fixed in formalin. An expert GI pathologist sectioned the specimens along cross-sections at ˜2 mm intervals longitudinally and interpreted the histopathology while blinded to the fluorescence images. The mean intensity of the fluorescence images in each 1 mm interval was measured using the NIH Image J processing software and compared with histology.

[5] = system: Q-hTERT (intestinal metaplasia) cells; assay: Target peptide binding to cell surface targets; format: cell-based; conditions: 100 μM
0E-21 (squamous) cells = assay: Target peptide binding to cell surface targets; format: cell-based; conditions: 100 μM
[6] = system: SEG1 (adenocarcinoma) cells; assay: Target peptide binding to cell surface targets; format: cell-based; conditions: 100 μM
Experimental: Identification of plasma membrane targets on adenocarcinoma cells that affinity bind to “ASYNYDA” (SEQ ID NO: 5). The carboxyl end of the target peptide was linked to affinity column beads using EDC chemistry. Seg-1 cells were grown to confluency, lysed by sonification, and fractionated by centrifugation. The resulting membrane fractions were applied to the target peptide labeled column and specific binding proteins were eluted. These proteins were separated and collected in fractions by a reverse phase column using a Beckman PF 2D liquid chromatography apparatus. The protein fractions were spotted on a nitrocellulose coated micro array printer slide and probed with the FITC-labeled target peptide. The fluorescence intensities at each spot were quantified with an Axon Imager. Protein fractions with the highest intensity were trypsinized, and proteomic analysis was performed using a Finnigan LTQ linear ion trap mass spectrometer. The protein identities were confirmed using an International Protein Index (IPI) database search, utilizing the SEQUEST program and with open source Xtandem and peptide and protein prophet software. […] See Table 1 below for list of targets identified. All identified proteins were either an exact match or >0.99.

Q: With “NLMPYFS-GGGSK (NLMPYFSGGGSK) [scrambled control peptide, reference compound]” as the substance, how does the “inhibition of SNFYMPL-phage binding to OE33 cells” value (“inhibition” below) [1] read?
A: no inhibition ability

Q: What about the “inhibition” value ([1]; listed as scrambled peptide ‘NLMPYFS’) of the same substance?
A: did not inhibit

Q: With SNFYMPL-GGGSK as the substance, how does the “inhibition” value [1] read?
A: could obviously inhibit

Q: And the “inhibition” value ([1]; listed as ‘SNFYMPL’ peptide)?
A: significantly inhibited the SNFYMPL-phage binding to the OE33 cells in a concentration dependent manner

Q: What does the source list for “SNFYMPL-GGGSK-FITC (SNFYMPLGGGSK-{FITC′}) [FITC conjugated at the C-terminus of SNFYMPL via the GGGSK linker]”?
A: intensity associated with binding to the cell surface ([2]; FIG. 3 legend): 69±18; intensity associated with binding to the cell surface ([2]; NIH Image J): 69 mean grey value; cells with peptide bound to the plasma membrane ([2]; OE33 cells, FITC-labeled peptide, 10 minutes): > 90%; intensity associated with binding to the cell surface ([3]; FIG. 3 legend): 25.7±2.5; intensity associated with binding to the cell surface ([3]; NIH Image J): 25.7 mean grey value; mean fluorescence intensity value ([4]; dysplasia (n=69 sites)): 56.5 gray levels; mean fluorescence intensity value ([4]; gastric mucosa (n=35 sites)): 24.1 gray levels; mean fluorescence intensity value ([4]; intestinal metaplasia (n=66 sites)): 42.1 gray levels; binding to Barrett's dysplasia ([4]; mucosal surface areas on the centimeter scale): Selective binding; mean fluorescence intensity value ([4]; squamous (n=107 sites)): 27.1 gray levels

Q: Which “binding to cell surface targets” value [5] does the source give for ASYNYDA here?
A: lack of binding

Q: What about the “binding to cell surface targets” value (0E-21 (squamous) cells) of the same substance?
A: lack of binding

Q: What about the “binding to cell surface targets” value [6] of the same substance?
A: preferential binding
